We go through two molecules from paper PMC11480411, “Mucosal sugars delineate pyrazine vs pyrazinone autoinducer signaling in Klebsiella oxytoca” (Nature Communications, 2024).

One experiment addresses T1, MCHR2 (Homo sapiens, UniProt Q969V1).
T1 construct: purchased PRESTO-Tango GPCR kit (Roth lab / Addgene)
The experiment can be described thus: PRESTO-Tango GPCR screen. It is filed as cell-based. The following applies: 100 µM. The essentials:
(§1)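 In this arrestin-recruitment reporter assay, HEK293-derived HTLA cells expressing a transfected receptor-Tango fusion are treated for 20 h with compound at a final 100 μM. Luciferase output is quantified with Bright-Glo and reported relative to PBS.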

Another experiment has as its target T2, NMUR2 (Homo sapiens, UniProt Q9GZQ4).
T2 construct: purchased PRESTO-Tango GPCR kit (Roth lab / Addgene)
Nature of the experiment: PRESTO-Tango GPCR screen. It is filed as cell-based. The following applies: 100 µM. The essentials: as §1

In the next experiment the target is T3, GPR123 (Homo sapiens, UniProt Q86SQ6).
T3 construct: purchased PRESTO-Tango GPCR kit (Roth lab / Addgene)
T3 sequence (Q86SQ6 whole entry): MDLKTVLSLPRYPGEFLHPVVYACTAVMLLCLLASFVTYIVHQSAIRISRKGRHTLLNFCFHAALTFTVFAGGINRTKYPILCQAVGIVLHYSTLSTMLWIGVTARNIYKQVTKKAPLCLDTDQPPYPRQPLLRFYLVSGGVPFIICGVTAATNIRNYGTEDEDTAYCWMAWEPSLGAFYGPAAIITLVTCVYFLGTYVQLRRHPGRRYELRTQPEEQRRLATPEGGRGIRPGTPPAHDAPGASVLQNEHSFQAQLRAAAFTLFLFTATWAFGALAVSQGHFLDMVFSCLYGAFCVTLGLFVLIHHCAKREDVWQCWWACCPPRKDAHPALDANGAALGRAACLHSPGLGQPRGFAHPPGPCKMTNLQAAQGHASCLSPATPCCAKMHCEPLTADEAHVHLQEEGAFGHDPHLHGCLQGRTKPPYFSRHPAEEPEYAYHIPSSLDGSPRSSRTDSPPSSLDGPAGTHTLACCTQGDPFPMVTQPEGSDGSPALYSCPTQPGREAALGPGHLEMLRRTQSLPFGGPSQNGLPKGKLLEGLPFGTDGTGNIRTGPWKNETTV
Nature of the experiment: PRESTO-Tango GPCR screen. The following applies: 100 µM. It is filed as cell-based. The essentials:
as §1

For another experiment, the target named is T4, GPR120 (Homo sapiens, UniProt Q5NUL3).
T4 construct: purchased PRESTO-Tango GPCR kit (Roth lab / Addgene)
T4 sequence (Q5NUL3 whole entry): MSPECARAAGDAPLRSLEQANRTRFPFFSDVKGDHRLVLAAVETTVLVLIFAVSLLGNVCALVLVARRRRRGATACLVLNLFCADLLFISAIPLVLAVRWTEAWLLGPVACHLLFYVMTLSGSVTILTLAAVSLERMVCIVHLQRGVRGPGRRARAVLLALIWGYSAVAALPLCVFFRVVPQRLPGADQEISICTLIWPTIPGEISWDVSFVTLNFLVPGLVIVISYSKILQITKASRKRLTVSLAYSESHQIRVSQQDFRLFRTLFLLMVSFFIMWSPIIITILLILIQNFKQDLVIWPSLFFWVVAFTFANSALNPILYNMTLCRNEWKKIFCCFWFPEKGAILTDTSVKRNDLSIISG
The experiment can be described thus: PRESTO-Tango GPCR screen. It is filed as cell-based. The following applies: 100 µM. The essentials: as §1

A further experiment has as its target T5, CCR3 (Homo sapiens, UniProt P51677).
T5 construct: purchased PRESTO-Tango GPCR kit (Roth lab / Addgene)
Nature of the experiment: PRESTO-Tango GPCR screen. It is filed as cell-based. The following applies: 100 µM. The essentials: as §1

Another experiment deals with T6, GPR17 (Homo sapiens, UniProt Q13304).
T6 construct: purchased PRESTO-Tango GPCR kit (Roth lab / Addgene)
T6 sequence (Q13304 whole entry): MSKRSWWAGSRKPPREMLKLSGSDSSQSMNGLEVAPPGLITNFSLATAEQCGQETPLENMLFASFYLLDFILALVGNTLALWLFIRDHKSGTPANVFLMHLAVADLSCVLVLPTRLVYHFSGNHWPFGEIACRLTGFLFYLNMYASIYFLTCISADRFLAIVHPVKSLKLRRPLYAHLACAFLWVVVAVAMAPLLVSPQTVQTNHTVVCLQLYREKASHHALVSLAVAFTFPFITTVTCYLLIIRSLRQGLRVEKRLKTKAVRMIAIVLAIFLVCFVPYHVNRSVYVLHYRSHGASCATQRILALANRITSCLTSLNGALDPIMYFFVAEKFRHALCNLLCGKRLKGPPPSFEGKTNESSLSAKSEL
The experiment can be described thus: PRESTO-Tango GPCR screen. Particulars: 100 µM. It is filed as cell-based. The method in brief:
as §1

Another experiment addresses T7, MC2R (Homo sapiens, UniProt Q01718).
T7 construct: purchased PRESTO-Tango GPCR kit (Roth lab / Addgene)
The experiment can be described thus: PRESTO-Tango GPCR screen. It is filed as cell-based. The following applies: 100 µM. The essentials:
as §1

The target in a further experiment is T8, OPRL1 (Homo sapiens, UniProt P41146).
T8 construct: purchased PRESTO-Tango GPCR kit (Roth lab / Addgene)
T8 sequence (P41146 whole entry): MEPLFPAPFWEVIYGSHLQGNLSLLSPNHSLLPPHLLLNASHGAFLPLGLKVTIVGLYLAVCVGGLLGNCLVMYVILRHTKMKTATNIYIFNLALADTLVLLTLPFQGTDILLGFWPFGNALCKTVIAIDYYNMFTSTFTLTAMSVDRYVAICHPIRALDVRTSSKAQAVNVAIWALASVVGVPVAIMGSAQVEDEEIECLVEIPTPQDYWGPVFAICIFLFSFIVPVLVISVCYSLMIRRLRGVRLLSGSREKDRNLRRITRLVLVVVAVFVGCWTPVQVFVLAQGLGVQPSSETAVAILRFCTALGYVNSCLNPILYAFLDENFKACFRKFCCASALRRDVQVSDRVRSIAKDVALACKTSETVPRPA
The experiment can be described thus: PRESTO-Tango GPCR screen. It is filed as cell-based. Particulars: 100 µM. The method in brief:
as §1

The next experiment relates to ∆pyr K. oxytoca. The experiment can be described thus: RNA-seq of compound-supplemented ∆pyr K. oxytoca. It is filed as cell-based, Klebsiella oxytoca ATCC 8724. The following applies: 10 µM. As to the method: A ∆pyr K. oxytoca glycerol stock was streaked onto an LB-Agar plate supplemented with spectinomycin (50 µg/mL) and incubated aerobically at 30°C for 24 h in a stationary incubator. Single colonies were grown for 24 h aerobically in 5 mL of M9 minimal medium supplemented with 5 g/L casamino acids and 0.4% D-galactose at 30 °C and 250 rpm. Each ∆pyr K. oxytoca overnight culture was diluted 1:1000 into fresh medium (5 mL) and incubated aerobically at 30 °C and 250 rpm to mid-exponential growth (OD600 = 0.8). These conditions abrogated both detectable pyrazine and pyrazinone production. At this point, 10 µM of compound in DMSO, were added to the cultures; an equal volume of DMSO was added to cultures without compound as a solvent vehicle control. The cultures were incubated under aerobic conditions with the compounds for one hour at 30 °C and at 250 rpm. After incubation, the cultures were centrifuged, the supernatants were decanted, and the cell pellets were quickly resuspended in 5 mL of Bacterial RNAProtect (Qiagen). The samples were centrifuged again, and the pellets were frozen on dry ice and stored at −80 °C until RNA extraction. The processed cell pellets were thawed on ice and resuspended in 200 µL of lysis buffer (10 mM Tris, 1 mM EDTA, 5 mg/mL lysozyme, 12.5 µg/mL proteinase K [pH 8.0]) and incubated at room temperature for 10 min. The RNA was extracted via the Qiagen RNeasy Mini kit, treated with TURBO DNase in a total volume of 100 µL at room temperature for 30 min, and extracted again using an RNeasy Mini kit. RNA-seq analysis was conducted by the Yale Center for Genome Analysis. Sequences were aligned to the K. oxytoca ATCC 8724 genome (NC_016612.1). Differential expression analysis was performed through DESeq2 and pathway enrichment analysis was performed through the Funage-Pro web-based platform.

T1 sequence (Q969V1 whole entry): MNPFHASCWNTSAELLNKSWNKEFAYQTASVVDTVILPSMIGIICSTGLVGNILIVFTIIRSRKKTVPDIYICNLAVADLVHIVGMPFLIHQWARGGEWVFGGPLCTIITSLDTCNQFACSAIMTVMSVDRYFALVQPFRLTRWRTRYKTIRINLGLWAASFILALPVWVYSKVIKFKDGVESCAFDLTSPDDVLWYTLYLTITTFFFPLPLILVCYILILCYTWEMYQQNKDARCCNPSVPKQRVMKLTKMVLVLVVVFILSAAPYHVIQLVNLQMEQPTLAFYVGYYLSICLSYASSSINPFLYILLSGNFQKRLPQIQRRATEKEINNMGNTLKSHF
T7 sequence (Q01718 whole entry): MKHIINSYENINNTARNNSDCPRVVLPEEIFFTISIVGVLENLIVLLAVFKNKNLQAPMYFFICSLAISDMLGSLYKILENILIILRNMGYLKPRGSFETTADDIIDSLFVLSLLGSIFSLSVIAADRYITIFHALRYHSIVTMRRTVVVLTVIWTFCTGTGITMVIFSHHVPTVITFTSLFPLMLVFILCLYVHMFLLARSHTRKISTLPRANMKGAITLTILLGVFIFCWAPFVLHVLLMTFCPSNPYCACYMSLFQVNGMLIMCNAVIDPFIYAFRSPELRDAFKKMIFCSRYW
T5 sequence (P51677 whole entry): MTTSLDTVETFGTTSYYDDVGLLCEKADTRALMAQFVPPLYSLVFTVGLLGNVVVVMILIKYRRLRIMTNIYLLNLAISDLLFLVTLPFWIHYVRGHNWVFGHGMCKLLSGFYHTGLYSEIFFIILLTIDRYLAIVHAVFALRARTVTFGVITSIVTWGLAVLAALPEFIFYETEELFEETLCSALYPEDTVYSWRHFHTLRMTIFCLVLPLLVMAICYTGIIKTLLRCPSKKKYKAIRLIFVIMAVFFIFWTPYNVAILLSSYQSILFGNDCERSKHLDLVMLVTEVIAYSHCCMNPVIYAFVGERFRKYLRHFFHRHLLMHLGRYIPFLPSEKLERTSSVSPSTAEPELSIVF
T2 sequence (Q9GZQ4 whole entry): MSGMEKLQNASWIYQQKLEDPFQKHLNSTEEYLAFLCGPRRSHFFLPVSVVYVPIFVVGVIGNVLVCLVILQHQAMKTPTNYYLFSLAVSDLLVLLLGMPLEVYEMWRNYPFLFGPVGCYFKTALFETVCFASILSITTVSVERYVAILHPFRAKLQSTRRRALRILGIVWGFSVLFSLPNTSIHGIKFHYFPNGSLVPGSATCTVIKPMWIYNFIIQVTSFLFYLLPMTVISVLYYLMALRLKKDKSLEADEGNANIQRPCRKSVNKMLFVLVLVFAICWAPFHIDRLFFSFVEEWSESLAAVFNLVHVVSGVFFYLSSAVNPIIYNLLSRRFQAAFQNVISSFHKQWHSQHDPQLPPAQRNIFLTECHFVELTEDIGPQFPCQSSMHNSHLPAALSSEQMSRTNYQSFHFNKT

As for `CC(C)Cc1ncc(CCCCNC(=N)N)[nH]c1=O` [3-Homo], the “GPCR activation (heatmap value)” value at MCHR2 was -0.05748; at NMUR2, 0.3619; at GPR123, -0.1319; on GPR120, 0.1572; at CCR3, -0.05608; on GPR17, 0.06719. The entries for the “GPCR activation (heatmap value)” value at MC2R and at OPRL1 were -0.5707 and 0.777, respectively.

In the case of `CC(C)Cc1ncc(CCCNC(=N)N)[nH]c1=O` [compound 3], the “GPCR activation (heatmap value)” value on MCHR2 is recorded as -1.212; on NMUR2, 0.09545; on GPR123 it was -0.4576; at GPR120, 0.8927; on CCR3, -0.6954; at GPR17 it was 0.1737. Besides, the figures for the “GPCR activation (heatmap value)” value on MC2R and on OPRL1 were 0.1631 and 0.326, respectively. Moreover, the “number of differentially regulated genes” value with ∆pyr K. oxytoca (one hour, vs DMSO, Padj < 0.05, abs(log2FC) > 1) worked out at 561 genes. For the same molecule, the “effect on enterobactin BGC transcription” value in the experiment with ∆pyr K. oxytoca (vs DMSO control, RNA-seq) is listed as “significantly enhanced transcription of the enterobactin BGC”. Besides, the “KEGG pathway enrichment neglogP: ABC Transporters, upregulated” value in the experiment on ∆pyr K. oxytoca (Funage-Pro, 3 upreg) stood at 5.638. Further, the “KEGG pathway enrichment neglogP: Biosynthesis of siderophore group nonribosomal peptides, upregulated” value in the experiment on ∆pyr K. oxytoca (Funage-Pro, 3 upreg) was found to be 9.097. The “effect on yersiniabactin BGC transcription” value in the experiment on ∆pyr K. oxytoca (RNA-seq, pyrazinone 3 compared with pyrazine 7) was “prominently upregulated the yersiniabactin BGC”.
